# Test results: patent publication US9566265B2, “Carbazole compounds and therapeutic uses of the compounds” (Incuron, LLC, priority 2008, dated 2017)
# Like-named read-outs stand apart in the source and are kept apart here.
# How the values were obtained:
# HB 101 E. coli = test: antibacterial cytotoxicity assay, gram(−) bacteria (OD600); assay type: cell-based; conditions: 48 hours, over a range of potencies, FIG. 13A
# [1] = test system: HCT-116, DLD1, Caki1 and MDA-MB-231 tumors; test: various human tumour xenografts sc; assay type: in vivo, nude or SCID mice; conditions: tumor cells inoculated as a cell suspension
# Protocol: (§1) In this study, the antitumor effect and toxicity of the three carbazoles against HCT-8 and HT29 colon cancer tumors were compared with treatment beginning when the tumor size reached 150-200 mg (about 7 days after tumor transplantation).
# [2] = test system: human HCT-8 ileocecal adenocarcinoma xenografts
# Protocol: as §1
# (§2) Eight to twelve-week-old female athymic nude mice (nu/nu, body weight 22-25 g) were obtained from Harlan Sprague Dawley Inc. (Indianapolis, Ind.) and maintained at five mice/cage with water and food ad libitum according to an institutionally approved animal protocol.
# (§3) Human ileocecal adenocarcinoma HCT-8 and colon adenocarcinoma HT-29 xenografts were used. The xenografts were initially established by injecting s.c 10^6 cultured cells and tumors were passed several generations by transplanting about 50 mg non-necrotic tumor (2-3 pieces) via a trocar from the passage tumors when the tumors reach to 1-1.5 g.
# (§4) Treatment was initiated 7 days after tumor transplantation when the tumors reached 150-200 mg. The mice in the control group received the vehicle (0.2% hydroxypropylmethylcellulose) at 200 μl per 20 g mouse body weight (same as the treatment groups). Five mice were used for each experimental group with 10 tumors (1 tumor each in the left and right side flanks).
# (§5) Two axes (mm) of tumor (L, longest axis; W, shortest axis) were measured with the aid of a Vernier caliper. Tumor weight (mg) was estimated using a formula: tumor weight=½ (L×W2). Tumor measurements were taken daily at the same time as drug treatment and 3-4 times a week of post therapy.
# (§6) The kinetics of drug-induced toxicities (body weight loss, diarrhea, and lethality) were determined daily for the first 10 days after treatment and every two days thereafter.
# (§7) Antitumor activity was assessed by maximum tumor growth inhibition (MTRI) which is the mean tumor weight of treated group (MTWTG) compared with untreated control group (MTWCG) at the same time point (MTRI=MTWTG−MTWCG)÷MTWCG×100%). The tumor doubling time (TDT) was defined as the mean time for the tumor to reach twice its initial weight. Tumor response was expressed as partial tumor response (PR) when tumor weight was reduced at least 50% of the initial tumor size and complete tumor response (CR) was defined as the inability to detect tumor upon palpation at the initial site of tumor appearance.
# Bloodstream T. brucei = test: T. brucei bloodstream form in vitro killing; assay type: cell-based, Trypanosoma brucei
# Protocol: Preliminary T. brucei inactivation experiments were performed in vitro. The life cycle of T. brucei involves a “procyclic” developmental stage in a tsetse fly, and a “bloodstream” form in humans. All studies were performed with the bloodstream stage of the parasite, because it is the disease-causing developmental stage.
# Suramin, a conventional anti-HAT drug, was used as a positive control.
# Bloodstream T. brucei was seeded (3×10^3 cells/mL) in 24-well (500 uL of the media per well) plate. […] Control cultures received equal volumes of DMSO.
# Bacillus subtilis = test: antibacterial cytotoxicity assay, gram(+) bacteria (OD600); assay type: cell-based; conditions: B. subtilis, 48 hours, over a range of potencies; FIG. 13B
# Protocol: In vitro test to evaluate the effect of carbazole compounds on gram(-) and gram(+) bacteria. Two days prior to the start of the cytotoxicity assay, inoculate DH5-α and B. subtilis into 1 ml of corresponding media from glycerol stocks. Allow to grow during the course of the day at 37° C. with shaking. Streak each bacteria on the appropriate agar plates using a sterile inoculation loop and allow to grow overnight at 37° C. in the bacteria incubator. Using a sterile inoculation loop, pick a single colony of bacteria and inoculate 5 ml of the corresponding media in a 14 ml snap cap tube. Grow overnight ( 16 h) at 37° C. with shaking. […] Dilute 5 ml cultures of DH5-α and B. subtilis to an OD600 nm of 0.002, which corresponds to about 2×10^6 cells/ml in a volume sufficient for the experiment (dependent on the number of plates). Plate out 50 μl into each well of X 96-well plates (X=# plates needed for a given experiment). […] Chemicals for testing are prepared by dilution of stock solutions in LB Broth or Nutrient Broth for DH5-α and B. subtilis studies, respectively. Cells are treated with the final chemical concentrations presented in the scheme below (Table 2). Stock solutions are made up in DMSO. […] However, this concentration is dependent on the solubility of a given chemical and actual stock concentrations must be noted at time of experiment. Each library chemical to be tested requires 2 rows of a 96-well plate, thus 4 chemicals ([…]) can be tested in one plate simultaneously. In addition to test chemicals, each plate should include positive and negative controls. As positive control, ampicillin is used at 100 μg/ml. […] Dilutions of chemicals to be added to the plate are made up as 2× concentrations in appropriate bacteria media and added to corresponding wells in a volume of 50 μl. […] This process is repeated until all 10 2× doses are prepared. […] Following the addition of carbazole compounds to 96-well plates containing bacteria, plates are transferred to the 37° C. bacteria incubator for 48 hours. After the incubation, the OD600 mm for each well of the 96-well plates will be measured. […] The % DMSO control is plotted vs compound concentration to generate sigmoid shaped curves. After three runs are complete, the raw data for all three runs is used for IC50 calculations.
# [3] = test system: Caki1 human renal cell carcinoma cells; test: Caki1 renal cell carcinoma xenograft efficacy test
# Protocol: In an efficacy test using these three compounds, athymic nude mice were inoculated subcutaneously with a suspension of Caki1 human renal cell carcinoma cells into both rear flanks. When at least one tumor in a mouse reached 20-50 mm^3, treatment was commenced. […] As a positive control, one group was treated with 40 mg/kg Sunitinib, an approved drug for the treatment of renal cell carcinoma. Treatment was given for 4 weeks on a 5 day on/2 day off schedule. After treatment was completed, mice were monitored for an additional 4 weeks to determine how quickly tumor growth returned to normal.
# in vivo = conditions: nude, mouse, po
# Protocol: Drug doses and schedule. […] Treatment was initiated 7 days after tumor transplantation when the tumors reached 150-200 mg. The mice in the control group received the vehicle (0.2% hydroxypropylmethylcellulose) at 200 μl per 20 g mouse body weight (same as the treatment groups). Five mice were used for each experimental group with 10 tumors (1 tumor each in the left and right side flanks).
# Maximum Tolerated Dose (MTD) and toxicity evaluation. […] The kinetics of drug-induced toxicities (body weight loss, diarrhea, and lethality) were determined daily for the first 10 days after treatment and every two days thereafter.
# [4] = test system: human HT-29 colon adenocarcinoma xenografts
# Protocol: as §1, §2, §3, §4, §5, §6, §7
# p53 = p53 activation assay, p53 responsive luciferase reporter cell line; assay type: cell-based, human; conditions: Homo sapiens
# Protocol: The potency of a present carbazole compound is determined by measuring an ability of the compound to inhibit NF-κB activity or to activate p53. […] Theoretically, such assays of the dose-response effect of activator compounds can be described as a sigmoidal curve expressing a degree of activation as a function of concentration. The curve also theoretically passes through a point at which the concentration is sufficient to increase activity to a level that is 50% that of the difference between a baseline and the maximal activity in the assay. […] Determination of an EC50 value is made using conventional biochemical (acellular) assay techniques or cell-based assay techniques.
# The potency of a carbazole compound is determined by measuring an ability of the compound to activate p53.
# The p53 activation assay for determination of the EC50 value was performed as follows:
# HT1080-L (human fibrosarcoma cells with ConALuc reporter)
# RCC45ConALuc (human renal cell carcinoma cell line with ConALuc reporter)
# 1. Two types of standard cells were used, either HT1080-L or RCC45ConALuc cells. Both cell lines stably express a p53 responsive luciferase reporter construct.
# 2. HT1080-L cells were grown in DMEM medium containing 10% FBS. RCC45ConALuc cells were grown in RPMI medium containing 10% FBS (Pen/Strep can be added to a final concentration of 1%, if desired). Both cell lines were grown in a humidified incubator at 37° C. with 5% CO2. For normal culturing, both cell lines were split using 1× trypsin-EDTA at a ratio of 1:20 for HT1080-L and 1:5 for RCC45ConALuc cells every 3-4 days (when cells are 80-90% confluent).
# 3. A day before the experiment, the cells are trypsinized for about 5 minutes in 1× tripsin/EDTA solution in 37° C. incubator and plated in 96 well plates. HT1080-L cells were seeded at a density of 1×10^4/well in standard DMEM medium in a volume of 50 μl. RCC45ConALuc were seeded at a density of 2×10^4/well in the volume of 50 uL in standard RPMI medium.
# 4. The next day, various carbazole compounds were prepared by dilution of stock solutions in standard DMEM medium such that the cells were treated with the final chemical concentrations in Table 1 below. Stock solutions were made up in DMSO. Typically, chemicals were made up as 20 mM stock solutions.
# 5. Each tested compound used two rows of a 96-well plate, thus four compounds (e.g., W, X, Y, Z) were tested in one plate simultaneously. In addition to test compounds, each plate included positive and negative controls. As positive control, 9aa was used at a dose of 3 μM. As a negative control, DMSO was used in final concentration 0.1%.
# 1. Dilutions of chemicals added to the plate were made up as 2× concentrations in standard DMEM and added to corresponding well in a volume of 50 μl.
# 2. Chemicals were diluted in standard DMEM by two time serial dilutions starting from 40 μM (2× of highest concentration, e.g., 20 μM). For one cell line, the minimum volume was 125 μL of 2× working solution of chemical of each concentration in standard DMEM.
# 4. Sixteen hours following compound addition, all wells with the highest concentrations of compounds are checked microscopically for the presence of toxic effect, because death of cells caused by compounds may not allow detecting luciferase activity. If cytotoxocity is evident, other doses of the same compounds were checked for the presence of toxicity. The lowest dose causing toxic effect was recorded.
# 5. After microscopic examination, 15 μl of Bright Glo luciferase assay system were added to each well and after 5 min incubation at RT, the plates were read on a 96 well plate luminometer with a measurement time of 0.1 sec. A shaking step was included before measurement.
# 6. The folds of luciferase activation for each concentration of each chemical were calculated by dividing the detected luciferase activity at each chemical concentration by the average of the luciferase activity for the DMSO control on the same plate.
# ATM/ATR = ATM/ATR activation (Table I); assay type: cell-based
# Topo II [5] = test: Topo II inhibition in cells (Table I); assay type: cell-based
# Chk1/2 = Chk1/2 phosphorylation (Table I); assay type: cell-based
# Topo II [6] = test: Topo II inhibition in vitro (Table I); assay type: biochemical
# γH2AX = γH2AX staining (Table I); assay type: cell-based
# bacteria = test: antibacterial cytotoxicity assay, comparison with ampicillin control; assay type: cell-based
# Protocol: In particular, the effect of carbazole compounds of the present invention on gram positive (Bacillus subtilis) and gram negative (DH5-α) bacteria was determined by the following procedure, and is summarized in FIGS. 13A and 13B.
# Each library chemical to be tested requires 2 rows of a 96-well plate, thus 4 chemicals (e.g. W, X, Y, Z) can be tested in one plate simultaneously. In addition to test chemicals, each plate should include positive and negative controls. As positive control, ampicillin is used at 100 μg/ml. As a negative control, DMSO is used in an amount equal to the highest volume of test compound used (˜0.25% DMSO for 50 μM).
# Besides a positive control added in one concentration on each plate, the positive control of ampicillin is added to each assay run in a full concentration range (3 fold dilutions) to ensure proper and robust assay performance (estimated by comparison of dose response curves among runs).
# The average OD600 nm of the test compound solutions are compared to that of the DMSO control by dividing the average OD600 nm of the test solution by that of the DMSO control and multiplying by 100 to produce the % DMSO control (i.e. % cytotoxicity). The % DMSO control is plotted vs compound concentration to generate sigmoid shaped curves. After three runs are complete, the raw data for all three runs is used for IC50 calculations.
# [7] = test system: Plasmodium falciparum (strain D10); test: Plasmodium falciparum in vitro culture, infected erythrocytes; assay type: cell-based; conditions: tested at 29, 57, 143 nM or 143 nM only; FIG. 12
# Protocol: In particular, the effect of carbazole compounds on the malaria parasite was tested by culturing Plasmodium falciparum (strain D10) in vitro in the presence or absence of test compounds.
# In each experiment, 1000 erythrocytes were assessed microscopically to determine the number of infected cells.
# [8] = p.o. at MTD, 5 days on/2 days off per week, Example 15 5, Example 7 30, Example 13 25 mg/kg/d
# [9] = 16 h, HT1080-L or RCC45ConALuc reporter cells, 16 h, read-out: EC50 value (p53 activation)
structure (smiles),measurement,setting,value
CCCNCCCn1c2ccc(C(C)=O)cc2c2c3c(ccc21)C(=O)CC3 [Example 13],antibacterial effect,HB 101 E. coli,antibacterial effect
same,antitumor efficacy,[1],antitumor efficacy
same,Toxicity (%) MWL,"[2]; mouse, in vivo",8.5 ± 2.9%
same,Antitumor Activity MTGI (%),[2]; [8],35.7 ± 20.0%
same,Toxicity (%) lethality,[2]; same,0%
same,CR (%),"[2]; same, complete tumor response",0%
same,PR (%),"[2]; same, partial tumor response",0%
same,Antitumor Activity TDT,"[2]; same, tumor doubling time",5.6 ± 1.2 days
same,delay of tumor growth compared to the vehicle control (double time 4.8 days),[2]; text b677,17%
same,elimination of parasites,"Bloodstream T. brucei; 48 hrs, up to 200 nM Example 7, 20 nM Example 13, 3 nM Example 15",completely eliminated T. brucei
same,IC50,"Bloodstream T. brucei; Trypanosoma brucei, read-out: IC50 (concentration that killed 50% of the parasites), bloodstream stage, 48 hrs of culture",6 to 11 nM
same,antibacterial effect,Bacillus subtilis,antibacterial effect
same,tumor growth inhibition compared to the vehicle control,"[3]; Day 24 (end of treatment), oral gavage 5 day on/2 day off, Example 7 30, Example 15 5, Example 13 25, Sunitinib 40 mg/kg",62%
same,side effects,"[3]; oral, 4 weeks 5 day on/2 day off",severest side effects
same,MTD at 4 weeks,in vivo,25 mg/kg/day
same,delay of tumor growth (control double time 7.8 days),[4],50%
same,inhibitory rate / tumor growth inhibition,[4],48%
same,Antitumor Activity MTGI (%),[4]; [8],47.6 ± 6.7%
same,Toxicity (%) lethality,[4]; same,0%
same,CR (%),"[4]; same, complete tumor response",0%
same,Toxicity (%) MWL,"[4]; same, maximum weight loss of pretreatment body weight",4.4 ± 2.2%
same,PR (%),"[4]; same, partial tumor response",0%
same,Antitumor Activity TDT,"[4]; same, tumor doubling time",11.7 ± 1.2 days
same,EC50,p53; [9],0.22 µM
COc1cccc2c1C(=O)c1c(O)c3c(c(O)c1C2=O)C[C@@](O)(C(=O)CO)C[C@@H]3O[C@H]1C[C@H](N)[C@H](O)[C@H](C)O1 [doxorubicin],ATM/ATR activation,ATM/ATR,yes
same,Topo II inhibition in cells,Topo II [5],yes
same,Chk1/2 phospho,Chk1/2,yes
same,Topo II inhibition in vitro,Topo II [6],relegation
same,Ames test,Ames test,negative
same,γH2AX staining,γH2AX,yes
CC(C)NCCn1c2ccc3c(c2c2c4c(ccc21)C(=O)CC4)CCC3=O [Example 17],effectiveness against bacteria compared with the ampicillin control,bacteria,more effective
same,antibacterial effect,HB 101 E. coli,antibacterial effect
same,antibacterial effect,Bacillus subtilis,antibacterial effect
same,EC50,p53; [9],0.04 µM
CCNCCCn1c2ccc3c(c2c2c4c(ccc21)C(=O)CC4)CCC3=O.Cl [Example 18],antibacterial effect,HB 101 E. coli,antibacterial effect
same,antibacterial effect,Bacillus subtilis,antibacterial effect
same,"anti-malarial activity, parasitemia reduction",[7],anti-malarial activity comparable to quinacrine
same,EC50,p53; [9],0.09 µM
same,EC50,"p53; Table 3, test compounds of the malaria experiment, read-out: EC50, μM (p53 activation assay)",0.09 µM
"CCN(CC)CCn1c2ccc3c(c2c2c4c(ccc21)C(=O)CC4)CCC3=O.Cl [Example 3, 6-[2-(Diethylamino)ethyl]-10,11-dihydro-1H-dicyclopenta[c,g]carbazole-3,9(2H,6H)-dione hydrochloride]",ATM/ATR activation,ATM/ATR,no
same,Chk1/2 phospho,Chk1/2,no
same,Topo II inhibition in vitro,Topo II [6],ligation
same,Ames test,Ames test,negative
same,γH2AX staining,γH2AX,no
